Source: patent US10695324B2, “Treatment for wolfram syndrome and other endoplasmic reticulum stress disorders” (Washington University, priority 2014, dated 2020)
Ends that are not written are not given here. Peptide text beside a SMILES is read from it. * marks the point of attachment. Cbz = O=C(OCc1ccccc1)*

Assays:
[1] = tested on: CAPNS1 protein in HEK293T cells ectopically expressing WFS2; test: CAPNS1 protein level after proteasome inhibition; assay type: cell-based; details: 2 μM
Procedure: To find out whether WFS2 regulates CAPNS1 stability through the ubiquitin-proteasome pathway, HEK293T cells ectopically expressing WFS2 were treated with a proteasome inhibitor, MG132 (2 μM), and then the CAPNS1 protein level was measured.

INS-1 823/13 cells = test: Small-scale screen for prevention of thapsigargin mediated cell death, caspase 3/7-Glo luminescence; assay type: cell-based, rat; details: pretreated 24 hours, then 2 nM thapsigargin overnight
Procedure: INS-1 823/13 cells were pretreated with DMSO or drugs for 24 hours the incubated in media containing 2 nM of thapsigargin (TG) overnight. Apoptosis was detected by caspase 3/7-Glo luminescence. […] These eight compounds were PARP Inhibitor, dantrolene sodium, NS398, rapamycin, pioglitazone, calpain inhibitor III, docosahexaenoic acid (DHA), and GLP-1 (FIG. 8A).

[2] = tested on: Neuro2a cells transfected with siRNA against WFS2; test: WFS2-knockdown mediated cell death, cleaved caspase 3 immunoblotting and Annexin V staining; assay type: cell-based, mouse; details: neuronal cell line; 100 μM for 12 hours, 36 hours post-transfection
Procedure: Flow cytometry analyses (FACS) were performed with LSRII Flow Cytometer (BD Biosciences, San Jose, Calif.) at the FACS core facility of Washington University School of Medicine Neural progenitor cells or NSC34 cells were plated in 24-well plates. After staining with Annexin V, cells were washed and resuspended in PBS. Cells were run using standard protocols, specifically Annexin V positive cell (i.e., apoptotic cells). The results were analyzed by FlowJo ver.7.6.3 (Ashland, Oreg.).
(§1) Neuro2a and MIN6 cells were transfected with siRNA against WFS2 or a control scrambled siRNA (Cont.). After 36 hours post-transfection, cells were untreated or treated with 100 μM calpeptin for 12 hours. Cleaved caspase 3 and actin levels were assessed by immunoblotting (FIG. 5A, left panel). Quantified levels of cleaved caspase-3 are shown in FIG. 5A, right panel (n=3, *P<0.05). Additionally, early stage apoptosis was monitored by Annexin V staining followed by flow cytometry, FIG. 5C. INS-1 832/13 cells were transfected with scrambled siRNA and WFS2 siRNA. After 24 hours post-transfection, cells were untreated or treated with 5 μM calpeptin for 24 hours. Cleaved caspase-3, WFS2, and actin levels were monitored by immunoblotting (FIG. 5D, left panel) and quantified (FIG. 5D, right panel) (n=3, *P<0.05).

[3] = tested on: MIN6 cells transfected with siRNA against WFS2; test: WFS2-knockdown mediated cell death, cleaved caspase 3 immunoblotting; assay type: cell-based, rodent; details: β cell line; 100 μM for 12 hours, 36 hours post-transfection
Procedure: as §1

[4] = tested on: INS-1 832/13 cells transfected with WFS2 siRNA; test: WFS2-knockdown mediated cell death, cleaved caspase-3 immunoblotting; assay type: cell-based, rat; details: β cell line; 5 μM for 24 hours, 24 hours post-transfection
Procedure: as §1

INS-1 832/13 cells = test: Cytoplasmic calcium levels by Fura-2 calcium indicator; assay type: cell-based, rat; details: 10 μM for 24 hours
Procedure: (§2) First, the question of whether dantrolene could decrease cytoplasmic calcium levels was tested. […] and NSC34 cells were untreated or treated with 10 μM dantrolene for 24 hours. Cytoplasmic calcium levels were measured by Fura-2 calcium indicator over a period of 5 minutes. Thapsigargin (1 μM) was added at time 0. […] Next, it was necessary to determine if dantrolene could restore cytosolic calcium levels in WFS1-deficient cells.

NSC34 cells = test: as above; assay type: cell-based; details: 10 μM for 24 hours
Procedure: as §2

[5] = tested on: WFS1 silenced INS-1 832/13 cells; test: Protection of WFS1 silenced cells, immunoblotting of cleaved caspase-3 and cleaved spectrin; assay type: cell-based, rat; details: 10 μM for 48 hours
Procedure: In order to determine whether dantrolene conferred protection in WFS1 deficient cells and WFS1 silenced INS-1 832/13 cells were treated with dantrolene. INS-1 832/13 cells were transfected with scrambled siRNA or siRNA directed against WFS1. Cells were untreated or treated with 10 μM dantrolene for 48 hours, then incubated in media containing 0.5 μM thapsigargin for 6 hours. Expression levels of cleaved caspase-3 under untreated and thapsigargin treated conditions (FIG. 9A, left panel) were quantified and shown in FIG. 9A, center and right panels (n=3, *P<0.05). Protein levels of cleaved spectrin, WFS1, and GAPDH were analyzed by immunoblotting (FIG. 9B, left panel) and quantified (FIG. 9B, right panel) (n=3, *P<0.05). […]

[6] = tested on: WFS1-knockdown NSC34 cells; test: Protection of WFS1-knockdown cells, immunoblotting of cleaved caspase-3 and cleaved spectrin; assay type: cell-based; details: 10 μM for 24 hours
Procedure: NSC34 cells were transfected with scrambled siRNA or siRNA directed against WFS1, then untreated or treated with 10 μM dantrolene for 24 hours.

[7] = tested on: INS-1 832/13 cells transfected with WFS2 siRNA; test: Cell death mediated by WFS2 knockdown, cleaved caspase-3 immunoblotting; assay type: cell-based, rat; details: 10 μM for 24 hours, 24 hours post transfection
Procedure: (§3) In to determine if danotrolene affects ER calcium homeostasis, cells were treated with ryanodine or dantrolene. INS-1 832/13 cells were transfected with scrambled siRNA or WRFS1 siRNA. After 24 hours post-transfection, cells were untreated or treated with 2 μM ryanodine for 24 hours. Cleaved caspase-3, WFS1, and GAPDH levels were monitored by immunoblotting (FIG. 10A, left panel) and quantified ([…], right panel). INS-1 832/13 cells (FIG. 10B) and NSC34 cells (FIG. 10C) were transfected with scrambled siRNA or WRFS2 siRNA. After 24 hours post transfection, cells were untreated or treated with 10 μM dantrolene for 24 hours. Cleaved caspase-3, WFS2, and GAPDH levels were monitored by immunoblotting.

[8] = tested on: NSC34 cells transfected with WFS2 siRNA; test: as above; assay type: cell-based; details: 10 μM for 24 hours, 24 hours post transfection
Procedure: as §3

[9] = cited from earlier work
[10] = tested on: ER-localized ryanodine receptors; details: previous studies; cited from earlier work
INS1E cells = test: ER stress- and cytokine-induced β cell death, caspase 3/7 activity assay; details: 100 nM
Source text: A Caspase 3/7 assay (Promega, Madison, Wis.) was utilized to measure caspase-3 and -7 activities in various cell lines. The assay provides a proluminescent caspase-3/7 substrate, which contains the tetrapeptide sequence DEVD. This caspase-3/7 substrate can be added directly to cell lysates. The substrate is cleaved to release a aminoluciferin, which is a substrate for luciferase used in the production of light. The signal is proportional to caspase-3/7 activity.

[11] = tested on: neural progenitor cells derived from iPS cells of a Wolfram syndrome subject; test: Thapsigargin-induced cell death in patient neural progenitor cells, cleaved caspase-3 immunoblotting; details: pretreated 10 μM for 48 hours, then 0.125 μM thapsigargin for 20 hours
Source text: To generate iPS cells, fibroblasts were obtained from non-affected controls and subjects with Wolfram syndrome. […] To generate neural progenitor cells, iPSCs were counted and plated ˜50,000 per well in a 96-well plate to form uniform embryoid bodies. After 5 days, embryoid bodies were suspended in neural induction media and replated as adherent cultures. Fresh media was applied every day for 7 days. Neural rosettes formed in these cultures were selected and plated. Plated rosettes were fed with neural induction media every day for 4-7 days to obtain neural progenitor cells.
Wolfram patient neural progenitor cells were pretreated with or without 10 μM dantrolene for 48 hours.

[12] = tested on: INS-1 832/13 cells expressing D1ER; test: ER calcium monitoring with D1ER (FRET/CFP ratio, FACS); assay type: cell-based, rat; details: various concentrations, dose-dependent manner
Source text: A β cell line was developed to monitor ER calcium levels under various conditions. The ER-localized calcium sensor D1ER was modified to contain two fluorescent proteins, CFP and YFP, which were inserted onto the N- and C-terminus, respectively. INS-1 832/13 cells were transfected with the modified D1ER calcium sensor. When Ca^2+ binds to the calmodulin, an intramolecular rearrangement occurs and brings CFP and YFP into close proximity resulting in a fluorescence resonance energy transfer (FRET) from CFP to YFP. The FRET signal allows ratiometric measurements of free ER Ca^2+ and changes in Ca^2+ using FRET/CFP ratio.
INS-1 832/13 cells that stably express D1ER were treated with digitonin and ethylene glycol tetraacetic acid (EGTA) which causes the minimum value of FRET/CFP ratio, FIG. 10F. Additionally, cells treated with digitonin and CaCl2 led to the maximum value of FRET/CFP ratio, FIG. 10F.
FRET/CFP ratio was decreased in INS-1 832/13 cells treated with thapsigargin in a dose-dependent manner (FIG. 10G). Additionally, the rates of ER calcium-depleted cells increased in cells treated with thapsigargin in a dose-dependent manner (FIG. 10G).

[13] = tested on: ER stress-mediated cell death; details: have been shown (references); cited from earlier work
[14] = thapsigargin 1 μM added at time 0, Fura-2 over 5 minutes

CC(C)C[C@@H](C=O)NC(=O)[C@H](CC(C)C)NC(=O)[C@H](CC(C)C)NC(=O)OCc1ccccc1 [MG132] (Cbz-Leu-Leu-Leu-aldehyde)
CAPNS1 protein level [1]: stabilized CAPNS1 protein

CS(=O)(=O)Nc1ccc([N+](=O)[O-])cc1OC1CCCCC1 [NS398]
suppression of thapsigargin mediated cell death (apoptosis by caspase 3/7-Glo luminescence) (INS-1 823/13 cells; 10 μM (Table 3)): significantly suppress thapsigargin mediated cell death

CC(C)[C@H](NC(=O)OCc1ccccc1)C(=O)N[C@H](C=O)Cc1ccccc1 [calpain inhibitor III] (Cbz-Val-Phe-aldehyde)
suppression of thapsigargin mediated cell death (apoptosis by caspase 3/7-Glo luminescence) (INS-1 823/13 cells; 1 μM (Table 3)): significantly suppress thapsigargin mediated cell death

CCCC[C@@H](C=O)NC(=O)[C@H](CC(C)C)NC(=O)OCc1ccccc1 [calpeptin]
WFS2-knockdown mediated cell death [2]: prevented WFS2-knockdown mediated cell death | WFS2-knockdown mediated cell death [3]: prevented WFS2-knockdown mediated cell death | WFS2-knockdown mediated cell death [4]: prevented WFS2-knockdown mediated cell death

O=C1CN(/N=C/c2ccc(-c3ccc([N+](=O)[O-])cc3)o2)C(O)=N1 [dantrolene, 1-[[5-(4-nitrophenyl)-2-furyl]methylideneamino]imidazolidine-2,4-dione]
suppression of thapsigargin mediated cell death (apoptosis by caspase 3/7-Glo luminescence) (INS-1 823/13 cells; 10 μM (Table 3)): significantly suppress thapsigargin mediated cell death | cytosolic calcium levels (INS-1 832/13 cells; [14]): decreased cytosolic calcium levels | cytosolic calcium levels in WFS1-knockdown cells (INS-1 832/13 cells; WFS1-knockdown INS-1 832/13 cells): restored cytosolic calcium levels | cytosolic calcium levels (NSC34 cells; [14]): decreased cytosolic calcium levels | cytosolic calcium levels in WFS1-knockdown cells (NSC34 cells; WFS1-knockdown NSC34 cells): restored cytosolic calcium levels | calpain activity (cleaved spectrin) ([5]; then 0.5 μM thapsigargin for 6 hours): suppression of apoptosis and calpain activity | apoptosis (cleaved caspase-3) ([5]; then 0.5 μM thapsigargin for 6 hours or untreated): suppression of apoptosis | calpain activation (cleaved spectrin) [6]: prevented calpain activation | cell death (cleaved caspase-3) [6]: prevented calpain activation and cell death | cell death mediated by WFS2 knockdown [7]: did not block cell death mediated by WFS2 knockdown | cell death mediated by WFS2 knockdown [8]: did not block cell death mediated by WFS2 knockdown | solubility in water [9]: poorly soluble in water | leakage of calcium from the ER to the cytosol [10]: suppresses leakage of calcium from the ER to the cytosol | cytokine induced β cell death (INS1E cells; inflammatory cytokine 50 ng/mL): prevented | thapsigargin-induced β cell death (INS1E cells; thapsigargin 10 nM for 24 hours): prevented | thapsigargin-induced cell death (cleaved caspase-3) [11]: could prevent cell death

C/C=C(/C)C(=O)O[C@H]1C(C)=C2[C@H]([C@@H]1OC(=O)CCCCCCC)[C@@](C)(OC(C)=O)C[C@H](OC(=O)CCC)[C@@]1(O)[C@H]2OC(=O)[C@@]1(C)O [thapsigargin]
FRET/CFP ratio (ER calcium) [12]: decreased | rates of ER calcium-depleted cells [12]: increased

GLP-1: Glucagon-like peptide-1; FDA approved drug (HAEGTFTSDVSSYLEGQAAKEFIAWLVKGR; ends and bridges not checked; UniProt P01275 98-127, looked up)
suppression of thapsigargin mediated cell death (apoptosis by caspase 3/7-Glo luminescence) (INS-1 823/13 cells; 50 nM (Table 3)): significantly suppress thapsigargin mediated cell death | protection against ER stress-mediated cell death [13]: confer protection against ER stress-mediated cell death
